Laboratory results reported in US6423737B1, “Benzamidoxime prodrugs as antipneumocystic agents” (The University of North Carolina at Chapel Hill, priority 1995, dated 2002).

Experiments:
BRL 3A hepatocytes = assay: Metabolism in intact cultured cells (HPLC of culture supernatants); assay type: in vitro ADME; details: 10 μM substrate, 24 hours, 37EC; extracellular medium assayed; FIG. 4
Method: Metabolic experiments with intact cultured cells were performed using the BRL 3A hepatocyte line, obtained from the UNC-Chapel Hill Lineberger Tissue Culture Facility. Cells were routinely cultured in Costar (Cambridge, Mass.) 25 cm^2 of tissue culture flasks at 37EC under moist 5% CO2 and 95% air in Ham's F-12 medium (Gibco, Gaithersburg, Md.) containing 5% fetal bovine serum (HyClone Laboratories Inc., Logan, Utah). Confluent cultures were treated with 0.25% trypsin solution (Sigma Chemical Co., ST. Louis Mo.), then approximately 2×10^5 cells/well subcultured into Costar 6-well tissue culture chambers and the cells allowed to grow to confluency. Ten mL fresh medium was added to each culture well and incubations were started by adding 100 μL amidoxime solution (prepared in sterile water) to a final concentration of 10 μM. Cell cultures were incubated at 37EC under moist 5% CO2 and 95% air for 24 hours, then aliquots of culture supernatants extracted and assayed for metabolites as described below. Similar metabolic experiments were performed with cultured J774 A.1 mouse monocyte-macrophage cells cultured in DMEM F-12 medium containing 10% fetal bovine serum and H9c2 rat heart myoblast cells cultured in DMEM H medium containing 10% fetal bovine serum.
(§1) Samples were extracted using solid phase extraction and assayed using high performance liquid chromatography (HPLC) by methods similar to those previously described in Berger et al. (1992) and Berger et al., (1991), supra. Briefly, samples spiked with 2,5-bis[4-(N-isopropylamidino)phenyl]furan dihydrochloride as the internal standard (IS) were extracted over activated C18 Bond Elut cartridges (Varian Associates, Sunnydale, Calif.), washed with water, 100% acetonitrile, then eluted with 75% acetonitrile/25% water containing 15 mm triethylamine and 35 mM acetic acid. The diamidoxime substrates elute in the 100% acetonitrile phase, while mono-amidine and diamidine products elute in the acetonitrile/water mixture containing triethylamine and acetic acid. Elutes were evaporated to dryness at 40EC under a gentle stream of nitrogen and resuspended in HPLC grade water.
Compounds were resolved using a Hewlett-Packard (Avondale, Pa.) model 1090 HPLC equipped with a HP 1050 variable wavelength detector set at 265 nm, a 4.6×250 mm Zorbax RX diisopropyl C8 column (Mac-Mod, Chadd's Ford, PA) maintained at 40EC and a Vectra 486/66U computer with HP Chemstations software. […] Quantities of metabolites formed were calculated, using peak area rations of authentic standard, from standard addition curves generated by spiking standards into tissue homogenates or tissue culture medium.

[1] = Acute toxicity of single doses in normal rats; assay type: in vivo; details: for time after injection to recovery: single IV 80 μmol/kg; for overt toxic responses after single oral doses: single oral doses as high as 160 μmol/kg; for overt acute adverse reactions following single intravenous injections, compared to the bis-benzamidines: single tail vein injection; for time after injection to recovery / persistence of symptoms: single IV 160 μmol/kg
Pneumocystis carinii [2] = assay: Anti-P. carinii activity in immunosuppressed rat model (lung cyst counts); assay type: in vivo, Sprague-Dawley rats; details: for anti-P. carinii activity / mean cyst counts when given intravenously (in words): Formula I amidoximes, intravenous; for % saline, ORAL DOSING / % saline, IV DOSING: Table 2; for % saline, ORAL DOSING: oral by gavage daily for 14 days @33 μmol/kg body weight; for % saline, IV DOSING: tail vein injection daily for 14 days at 22 mg/kg body weight; for anti-P. carinii activity when given orally (in words): Formula I series, orally by gavage once daily for 14 days
Method: The activity of the compounds of Formula I against P. carinii was carried out according to an established method. See Tidwell, R. R., et al., J. Protozool. […] Agents Chemother. […] Agents Chemother. […] Briefly, male Sprague-Dawley rats (barrier raised, not certified virus-free) weighing 150-200 g each, were obtained (Hilltop Laboratories, Scottsdale, Pa.). Immediately upon arrival, the animals were caged individually and begun on a low protein (8%) diet and on drinking water containing tetracycline (0.5 mg/mL) and dexamethasone (1.0 μ/mL). This regimen was continued for eight weeks. At the beginning of the seventh week, animals were divided into groups of 8 or more, and the test compounds were administered for 14 days. Saline and pentamidine-treated groups were included as controls.
Animals were sacrificed at the end of the eighth week by chloroform inhalation. The left lung was weighed, ground through a No. 60 wire mesh screen, and suspended 1:10 (wt/vol) in 10 mM β-mercaptoethanol-Hanks' balanced salts solution (HBSS) without cations. Slides were prepared by spotting 5 μL of lung homogenate diluted 1:10 in HBSS with β-mercaptoethanol and allowed to air dry. The slides were stained with cresyl violet, and the cysts were counted by a blinded protocol. The number of cysts per gram of original lung tissue was calculated, and the groups were reported as the percentages of saline-treated controls.
The anti-P. carinii value for each compound is expressed as the percent of cysts in the treatment group as compared to the saline control group. Values are also compared to a positive control group consisting of animals treated intravenously with pentamidine.

[3] = In vitro metabolism by rat tissue homogenate 9000×g supernatants (HPLC); assay type: in vitro ADME; details: for metabolism by rat liver homogenate 9000×g supernatants: 167 μM substrate plus cofactor solution, 37EC, 10 minutes, FIG. 1
Method: In vitro metabolism of diamidoximes 1, 3, 5, and 7 by rat liver homogenate 9000×g supernatants, post-mitochondrial 105,000×g supernatants or microsomal fractions were performed as previously described in B. J. Berger et al., Antimicrob. Agents and Chemotherapy 36, 1825-1831 (1992); B. J. Berger et al., J. Pharmacol. Experimental Therapeutics 256, 883-89 (1991). Briefly, adult male Sprague-Dawley rats, barrier raised, (Hilltop Laboratories, Scottsdale, Pa.) animals were given water and rat chow (Agway, Syracuse, N.Y.) ad libitum. The rats were euthanized by decapitation, the livers removed immediately, rinsed with 50 mM potassium phosphate buffer, pH 7.4, and placed on ice. All subsequent steps were performed at 4EC. The livers were minced, homogenized, and 9000×g supernatants, 105,000×g or 105,000×g microsomal pellets prepared. Each fraction was assayed for protein content as described in M. M. Bradford, Anal. Biochem. 72, 248-254 (1976) and stored at −80EC. Fractions from the rat kidneys, lungs, hearts and brains were prepared similarly.
Reaction mixtures consisted of 1.5 mL 50 mM potassium phosphate buffer, pH 7.4, 0.5 mL cofactor solution (2 mg/mL NADPH, 1.6 mg/mL MgCl2, 1.04 mg/mL glucose-6-phosphate and 2 units/mL glucose-6-phosphate dehydrogenase in 50 mM potassium phosphate buffer pH 7.4), 0.5 mL tissue homogenate and 0.5 mL of the appropriate diamidoxime substrate at a concentration of 167 μM. Reactions were started by adding substrate, then mixtures were incubated at 37EC in a shaking water bath for times shown in the figures. Reactions were terminated by extracting over C18 cartridges and assaying as described below.
as §1
Compounds were resolved using a Hewlett-Packard (Avondale, Pa.) model 1090 HPLC equipped with a HP 1050 variable wavelength detector set at 265 nm, a 4.6×250 mm Zorbax RX diisopropyl C8 column (Mac-Mod, Chadd's Ford, PA) maintained at 40EC and a Vectra 486/66U computer with HP Chemstations software. The mobile phase consisted of 15 mM triethylamine and 35 mM acetic acid in HPLC grade water for pump A, and 15 mM triethylamine and 35 mM acetic acid in 75% acetonitrile in water for pump B. The solvent flow rate was 1.5 mL/min, and the solvent gradient ran from 0% B to 25% B at 22 min, to 40% B at 25 min, then 90% B at 35 min. All solvents and reagents used for the assays were HPLC grade. Quantities of metabolites formed were calculated, using peak area rations of authentic standard, from standard addition curves generated by spiking standards into tissue homogenates or tissue culture medium.

Pneumocystis carinii [4] = details: immunosuppressed rat model, D. W. Boykin et al., J. Med. Chem. 38, 912 (1995); cited from earlier work
[5] = Subjective scale of toxicity and tolerance during treatment in the immunosuppressed rat model; details: subjective scale
Description: ^b subjective scale of toxicity. […] In general, the larger the value the more severe the toxicity, with values greater than 2 indicating the death of some animals

| Compound | metabolism in intact BRL 3A hepatocytes (BRL 3A hepatocytes) | observed acute toxicity after single intravenous injection ([1]; normal rats, 80 μmol/kg) | time after injection to recovery ([1]; normal rats) [min] | overt toxic responses after single oral doses ([1]; normal rats) | overt acute adverse reactions following single intravenous injections, compared to the bis-benzamidines ([1]; normal rats) | anti-P. carinii activity / mean cyst counts when given intravenously (in words) (Pneumocystis carinii [2]) | % saline, ORAL DOSING (Pneumocystis carinii [2]) [% saline] | % saline, IV DOSING (Pneumocystis carinii [2]) [% saline] | metabolism by rat liver homogenate 9000×g supernatants [3] | observed acute toxicity after single intravenous injection ([1]; normal rats, 160 μmol/kg) | time after injection to recovery / persistence of symptoms ([1]; normal rats) | anti-P. carinii activity when given orally (in words) (Pneumocystis carinii [2]) | other results |
| --- | --- | --- | --- | --- | --- | --- | --- | --- | --- | --- | --- | --- | --- |
| NC(=NO)c1ccc(OCCCCCOc2ccc(C(N)=NO)cc2)cc1.O=C(O)/C=C\C(=O)O.O=C(O)/C=C\C(=O)O [Compound 1, 1,5-bis(4′-(N-hydroxyamidino)phenoxy)pentanedi-hemimaleinate] | metabolized predominantly to the corresponding diamidine | Minor toxic responses, including barely observable hindleg ataxia and slight hypoactivity | 5 | No overt toxic responses | greatly reduced | significantly reduced compared to saline controls | 19.27 | 0.15 | forming large quantities of the monoamidine-monoamidoxime derivative, and smaller amounts of pentamidine | – | – | – | observed acute toxicity after single intravenous injection ([1]; normal rats, bolus injections above 120 μmol/kg): severe dyspnea and profound hypoactivity; observed acute toxicity after single intravenous injection ([1]; normal rats, from 20 to 60 μmol/kg): no observable adverse reactions; metabolism by 9000×g supernatants of homogenates of rat liver, kidney, lung and heart ([3]; FIG. 3A-3D): into its amidine analog pentamidine |
| NC(=NO)c1ccc(OCCCOc2ccc(C(N)=NO)cc2)cc1.O=C(O)/C=C\C(=O)O.O=C(O)/C=C\C(=O)O [Compound 5, 1,3-bis(4′-(4-hydroxyamidino)phenoxy)propanedi-hemimaleinate] | metabolized predominantly to the corresponding diamidine | – | – | No overt toxic responses | greatly reduced | significantly reduced compared to saline controls | 2.25 | 0.03 | metabolized similarly | only minor ataxia and/or hypoactivity | 5 min | most active | observed acute toxicity after single intravenous injection ([1]; normal rats, 20, 40 or 80 μmol/kg): no overt toxicity |
| COc1cc(C(N)=NO)ccc1OCCCOc1ccc(C(N)=NO)cc1OC.O=C(O)/C=C\C(=O)O.O=C(O)/C=C\C(=O)O [Compound 7, 1,3-bis(2′-methoxy-4′-(N-hydroxyamidino)phenoxy)propanedi-hemimaleinate] | metabolized predominantly to the corresponding diamidine | only very minor hypoactivity and dyspnea | 5 | No overt toxic responses | greatly reduced | significantly reduced compared to saline controls | 3.71 | 0.03 | metabolized similarly | pronounced hypoactivity, dyspnea, cyanosis, and increased salivation and lacrimation | approximately 10 minutes | most active | observed acute toxicity after single intravenous injection ([1]; normal rats, 20 or 40 μg/kg): no observable adverse effects |
| N=C(N)c1ccc(-c2ccc(-c3ccc(C(=N)N)cc3)o2)cc1 [Compound 9, 2,5-bis-[4-amidinophenyl]furan, reference compound] | – | – | – | – | – | – | – | – | – | – | – | – | activity on oral administration, furan series (in words) (Pneumocystis carinii [2]; immunosuppressed rat model, orally by gavage): significantly less; activity and toxicity compared with pentamidine on intravenous dosage (Pneumocystis carinii [4]): more active and less toxic than pentamidine; Toxicity, IV DOSING ([5]; 0.03 μmol/kg/day): 0; Toxicity, IV DOSING ([5]; 0.3 μmol/kg/day): 0; Toxicity, IV DOSING ([5]; 2.7 μmol/kg/day): 0; Toxicity, IV DOSING ([5]; 13.3 μmol/kg/day): 0; Toxicity, IV DOSING ([5]; 26.6 μmol/kg/day): +1; Toxicity, ORAL DOSING ([5]; 39.8 μmol/kg/day): 0; Toxicity, ORAL DOSING ([5]; 66.3 μmol/kg/day, larger = more severe): 0 |
